Measured values published in ChEMBL document CHEMBL5209567, “Membrane potential based assay for SLC2A9 using HEK-293 SLC2A9 OE cells” (2022).

Experiments:
[1] = target: T1, Solute carrier family 2, facilitated glucose transporter member 9 (Homo sapiens, UniProt Q9NRM0); experiment: Substrate uptake by the Glucose Transporter Type 9 (GLUT9, SLC2A9) as assessed by the fluorescent FLIPR membrane potential dye in HEK-293 cells stably transfected with SLC2A9 isoform 1 (PubChem AID: 1794831); type: functional, cell-based, HEK293
T1 sequence (Q9NRM0 whole entry): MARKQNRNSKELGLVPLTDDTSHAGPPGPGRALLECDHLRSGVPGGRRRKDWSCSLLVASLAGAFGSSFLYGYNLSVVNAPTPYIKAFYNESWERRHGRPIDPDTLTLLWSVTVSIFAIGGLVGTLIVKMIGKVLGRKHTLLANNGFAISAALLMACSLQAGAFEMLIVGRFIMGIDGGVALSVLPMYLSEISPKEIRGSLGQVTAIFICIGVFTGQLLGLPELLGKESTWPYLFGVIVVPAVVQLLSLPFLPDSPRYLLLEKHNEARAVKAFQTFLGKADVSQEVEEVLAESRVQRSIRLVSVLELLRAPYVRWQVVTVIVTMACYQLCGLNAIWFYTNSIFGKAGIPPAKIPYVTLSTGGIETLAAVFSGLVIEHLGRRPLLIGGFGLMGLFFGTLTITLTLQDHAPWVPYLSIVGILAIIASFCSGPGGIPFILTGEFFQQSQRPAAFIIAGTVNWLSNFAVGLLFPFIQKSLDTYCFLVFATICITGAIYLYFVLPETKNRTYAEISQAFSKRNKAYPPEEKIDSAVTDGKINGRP

[2] = target: T1, Solute carrier family 2, facilitated glucose transporter member 9; experiment: Substrate uptake by the Glucose Transporter Type 9 (GLUT9, SLC2A9) as assessed by the fluorescent FLIPR membrane potential dye in HEK-293 cells stably transfected with SLC2A9 isoform 2 (PubChem AID: 1794831); type: functional, cell-based, HEK293

SMILES | EC50 [1] | EC50 ([2]; read-out: EC50) | EC50 ([2]; hek293)
O=C(O)c1cc(=O)[nH]c(=O)[nH]1 [OROTIC ACID] | 1000 µM | 1000 µM | 
Oc1nc(O)c2nc(O)[nH]c2n1 [URIC ACID] | 300 µM |  | Ec50 Cannot Be Calculated For Isoform 2
